Data reported in US11214594B2, “Antimicrobial peptide having synergistic antibacterial effect with antibiotics on multidrug resistant bacteria, and use thereof” (priority 2016, dated 2022).
Read-outs that look alike come from different tables or passages of the source. Where a SMILES comes first, the peptide text is derived from it. [ ]: non-standard residue; d: D form.

Columns and labels:
MDRAB 12035 [1] = experiment: MIC of antibiotic during combined treatment with antimicrobial peptide; type: cell-based, Acinetobacter baumannii
In short: (§1)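 Antibiotic MIC came from antibiotic dilutions added to bacteria (2×10^6 CFU/ml, MH medium) already combined with peptide serially diluted 2:1 from its own MIC. Swapping the roles of the two agents gave the peptide MIC.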

E. coli = type: cell-based, Escherichia coli; conditions: E. coli
In short: as §1

MDREC 1229 = type: cell-based, Escherichia coli
In short: as §1

A. baumannii = experiment: MIC of antimicrobial peptide during combined treatment with antibiotic; type: cell-based, Acinetobacter baumannii
In short: as §1

MDRAB 12035 [2] = experiment: as above; type: cell-based, Acinetobacter baumannii
In short: as §1

[3] = peptide treatment concentration 8 μg/ml
[4] = peptide treatment concentration 16 μg/ml
[5] = peptide treatment concentration 32 μg/ml
[6] = peptide treatment concentration 64 μg/ml
[7] = linezolid 64 μg/ml (Conc./MIC 1/8)
[8] = linezolid 512 μg/ml (Conc./MIC 1)
[9] = vancomycin 512 μg/ml (Conc./MIC 1/2)
[10] = vancomycin 1024 μg/ml (Conc./MIC 1)
[11] = erythromycin 4 μg/ml (Conc./MIC 1/8)
[12] = erythromycin 8 μg/ml (Conc./MIC 1/4)
[13] = erythromycin 16 μg/ml (Conc./MIC 1/2)
[14] = erythromycin 32 μg/ml (Conc./MIC 1)

CC[C@H](C)[C@H](NC(=O)[C@H](CCCCN)NC(=O)[C@H](Cc1c[nH]c2ccccc12)NC(=O)[C@@H](N)CCCNC(=N)N)C(=O)N[C@@H](Cc1ccccc1)C(=O)N[C@@H](CCCCN)C(=O)N[C@@H](CCCCN)C(=O)N[C@H](C(=O)N[C@H](CCCCN)C(=O)N[C@@H](CCCCN)C(=O)N[C@@H](CC(C)C)C(=O)N[C@@H](CC(C)C)C(=O)N[C@@H](Cc1c[nH]cn1)C(=O)N[C@@H](CO)C(=O)N[C@@H](Cc1ccccc1)C(=O)N[C@@H](CCCCN)C(=O)N[C@@H](CCCCN)C(=O)N[C@@H](Cc1ccccc1)C(N)=O)[C@@H](C)CC [PapMA-15, RWK IFK KIk KLL HSF KKF-NH2] (H-RWKIFKKI[dK]KLLHSFKKF-NH2; N-terminus assumed)
Vancomycin MIC during combined treatment with peptide (MDRAB 12035 [1]; peptide treatment concentration 6 μg/ml): 32 µg/mL
Erythromycin MIC during combined treatment with peptide (MDRAB 12035 [1]; [3]): 1 µg/mL
Linezolid MIC during combined treatment with peptide (MDRAB 12035 [1]; [3]): 32 µg/mL
Vancomycin MIC during combined treatment with peptide (MDRAB 12035 [1]; [3]): 32 µg/mL
Erythromycin MIC during combined treatment with peptide (MDRAB 12035 [1]; [4]): 0.25 µg/mL
Linezolid MIC during combined treatment with peptide (MDRAB 12035 [1]; [4]): 4 µg/mL
Vancomycin MIC during combined treatment with peptide (MDRAB 12035 [1]; [4]): 16 µg/mL
Erythromycin MIC during combined treatment with peptide (MDRAB 12035 [1]; [5]): 0 µg/mL
Linezolid MIC during combined treatment with peptide (MDRAB 12035 [1]; [5]): 0 µg/mL
Vancomycin MIC during combined treatment with peptide (MDRAB 12035 [1]; [5]): 0 µg/mL
Erythromycin MIC during combined treatment with peptide (MDRAB 12035 [1]; [6]): 0 µg/mL
Linezolid MIC during combined treatment with peptide (MDRAB 12035 [1]; [6]): 0 µg/mL
Vancomycin MIC during combined treatment with peptide (MDRAB 12035 [1]; [6]): 0 µg/mL
Peptide MIC (E. coli; with Erythromycin […] (Conc./MIC 1)): 0 µg/mL
Peptide MIC (E. coli; with Linezolid […] (Conc./MIC 1)): 0 µg/mL
Peptide MIC (E. coli; with Vancomycin 1024 μg/ml (Conc./MIC 1)): 0 µg/mL
Peptide MIC during treatment with antibiotic (MDREC 1229; erythromycin 32 μg/ml (Conc./MIC 1/8)): 2 µg/mL
Peptide MIC during treatment with antibiotic (MDREC 1229; erythromycin 64 μg/ml (Conc./MIC 1/4)): 2 µg/mL
Peptide MIC during treatment with antibiotic (MDREC 1229; erythromycin […] (Conc./MIC 1)): 0 µg/mL
Peptide MIC during treatment with antibiotic (MDREC 1229; erythromycin […] (Conc./MIC 1/2)): 2 µg/mL
Peptide MIC during treatment with antibiotic (MDREC 1229; [7]): 4 µg/mL
Peptide MIC during treatment with antibiotic (MDREC 1229; [8]): 0 µg/mL
Peptide MIC during treatment with antibiotic (MDREC 1229; linezolid […] (Conc./MIC 1/2)): 1 µg/mL
Peptide MIC during treatment with antibiotic (MDREC 1229; linezolid […] (Conc./MIC 1/4)): 2 µg/mL
Peptide MIC during treatment with antibiotic (MDREC 1229; [9]): 2 µg/mL
Peptide MIC during treatment with antibiotic (MDREC 1229; [10]): 1 µg/mL
Peptide MIC during treatment with antibiotic (MDREC 1229; vancomycin […] (Conc./MIC 1/4)): 4 µg/mL
Peptide MIC during treatment with antibiotic (MDREC 1229; vancomycin […] (Conc./MIC 1/8)): 8 µg/mL
Peptide MIC during treatment with antibiotic (A. baumannii; [11]): 4 µg/mL
Peptide MIC during treatment with antibiotic (A. baumannii; [12]): 4 µg/mL
Peptide MIC during treatment with antibiotic (A. baumannii; [13]): 4 µg/mL
Peptide MIC during treatment with antibiotic (A. baumannii; [14]): 0 µg/mL
Peptide MIC during treatment with antibiotic (A. baumannii; linezolid 32 μg/ml (Conc./MIC 1/8)): 8 µg/mL
Peptide MIC during treatment with antibiotic (A. baumannii; linezolid 64 μg/ml (Conc./MIC 1/4)): 4 µg/mL
Peptide MIC during treatment with antibiotic (A. baumannii; linezolid […] (Conc./MIC 1)): 0 µg/mL
Peptide MIC during treatment with antibiotic (A. baumannii; linezolid […] (Conc./MIC 1/2)): 2 µg/mL
Peptide MIC during treatment with antibiotic (A. baumannii; [9]): 0.25 µg/mL
Peptide MIC during treatment with antibiotic (A. baumannii; [10]): 0 µg/mL
Peptide MIC during treatment with antibiotic (A. baumannii; vancomycin […] (Conc./MIC 1/4)): 0.5 µg/mL
Peptide MIC during treatment with antibiotic (A. baumannii; vancomycin […] (Conc./MIC 1/8)): 2 µg/mL
Peptide MIC during treatment with erythromycin (MDRAB 12035 [2]; [11]): 4 µg/mL
Peptide MIC during treatment with erythromycin (MDRAB 12035 [2]; [12]): 4 µg/mL
Peptide MIC during treatment with erythromycin (MDRAB 12035 [2]; [13]): 4 µg/mL
Peptide MIC during treatment with erythromycin (MDRAB 12035 [2]; [14]): 0 µg/mL
Peptide MIC during treatment with linezolid (MDRAB 12035 [2]; [7]): 4 µg/mL
Peptide MIC during treatment with linezolid (MDRAB 12035 [2]; [8]): 0 µg/mL
Peptide MIC during treatment with linezolid (MDRAB 12035 [2]; linezolid […] (Conc./MIC 1/2)): 1 µg/mL
Peptide MIC during treatment with linezolid (MDRAB 12035 [2]; linezolid […] (Conc./MIC 1/4)): 4 µg/mL
Peptide MIC during treatment with vancomycin (MDRAB 12035 [2]; [9]): 2 µg/mL
Peptide MIC during treatment with vancomycin (MDRAB 12035 [2]; [10]): 1 µg/mL
Peptide MIC during treatment with vancomycin (MDRAB 12035 [2]; vancomycin […] (Conc./MIC 1/4)): 2 µg/mL
Peptide MIC during treatment with vancomycin (MDRAB 12035 [2]; vancomycin […] (Conc./MIC 1/8)): 4 µg/mL
